Assay results from patent US20250002475A1 (EPICS THERAPEUTICS, priority 2023, published 2025).

Tests used:
[1] = molecular target: T1, recombinant METTL3/METTL14 complex (Homo sapiens, UniProt Q86U44); experiment: METTL3/14 Scintillation Proximity Assay (SPA), RNA methyltransferase activity; format: biochemical; conditions: 5.31 nM METTL3/14 complex, 250 nM RNA substrate, 1 μM 3H-SAM, 90 min; for compounds marked * best of the two separated forms
T1 construct: purchased Active Motif 311970; host or cells: Sf9 cells
T1 sequence (Q86U44 whole entry): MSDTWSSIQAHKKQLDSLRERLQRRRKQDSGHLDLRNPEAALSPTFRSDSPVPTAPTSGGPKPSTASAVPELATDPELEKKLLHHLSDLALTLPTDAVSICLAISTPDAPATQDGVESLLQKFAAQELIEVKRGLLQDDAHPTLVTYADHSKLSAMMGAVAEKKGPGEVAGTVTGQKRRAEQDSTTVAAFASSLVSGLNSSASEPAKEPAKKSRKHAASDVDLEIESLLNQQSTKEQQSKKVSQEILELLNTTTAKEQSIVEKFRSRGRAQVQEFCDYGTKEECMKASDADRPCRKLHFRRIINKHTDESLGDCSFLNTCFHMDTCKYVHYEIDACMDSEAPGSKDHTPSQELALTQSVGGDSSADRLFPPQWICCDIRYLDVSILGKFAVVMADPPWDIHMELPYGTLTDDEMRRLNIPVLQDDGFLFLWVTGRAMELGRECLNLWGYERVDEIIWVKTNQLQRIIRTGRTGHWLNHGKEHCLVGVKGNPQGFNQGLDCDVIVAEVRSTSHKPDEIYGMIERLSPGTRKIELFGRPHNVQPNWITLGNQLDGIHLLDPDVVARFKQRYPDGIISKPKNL
T1 sequence (Q9HCE5 whole entry partner): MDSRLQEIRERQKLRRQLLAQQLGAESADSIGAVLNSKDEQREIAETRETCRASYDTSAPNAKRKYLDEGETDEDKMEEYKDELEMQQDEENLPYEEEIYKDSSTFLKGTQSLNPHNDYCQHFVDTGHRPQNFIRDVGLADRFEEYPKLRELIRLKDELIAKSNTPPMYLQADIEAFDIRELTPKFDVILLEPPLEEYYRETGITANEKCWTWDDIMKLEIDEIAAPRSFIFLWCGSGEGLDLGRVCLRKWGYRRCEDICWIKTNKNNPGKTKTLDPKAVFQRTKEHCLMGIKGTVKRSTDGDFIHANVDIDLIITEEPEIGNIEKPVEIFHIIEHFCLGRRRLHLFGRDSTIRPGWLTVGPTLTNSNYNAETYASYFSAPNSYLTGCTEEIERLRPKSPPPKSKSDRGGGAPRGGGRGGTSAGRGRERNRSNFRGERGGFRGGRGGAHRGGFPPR

[2] = system: Caov-3 cells; experiment: Caov-3 cellular viability assay (ATP-Lite, 72 h); format: cell-based; conditions: Homo sapiens, ATP-Lite luminescence, % viability relative to DMSO
Procedure, shortened: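 IC50 values come from concentration-response fits of luminescent ATP content (ATP-Lite One Step), normalised as % viability versus DMSO. Compound exposure was 72 h at 37 °C in RPMI-1640/10% FBS with 0.1% final DMSO. Wells held 10000 cells each.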

[3] = system: Kasumi-1 cells; experiment: Kasumi-1 cellular viability assay (ATP-Lite, 72 h); format: cell-based; conditions: Homo sapiens, ATP-Lite luminescence, % viability relative to DMSO
Procedure, shortened: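 Viability was read by ATP-Lite One Step luminescence after 72 h compound treatment at 37 °C/5% CO2, normalised to DMSO control, with IC50 fitted from concentration-response. Cells were Kasumi-1 (AML FAB M2) at 15000 per well in RPMI-1640/10% FBS, 0.1% DMSO final.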

SMILES	IC50 [1] [nM]	IC50 [2] [nM]	IC50 [3] [nM]
COc1cncc(-c2cn(C3(c4ccc(N5CCC[C@@H](NCC6CCC6)C5)cc4)COC3)nn2)c1 [Compound 134, (R)-N-(cyclobutylmethyl)-1-(4-(3-(4-(5-methoxypyridin-3-yl)-1H-1,2,3-triazol-1-yl)oxetan-3-yl)phenyl)piperidin-3-amine]	≤ 50	≤ 500	≤ 500
CN(C)c1cncc(-c2cn(Cc3ccc(N4CCC[C@@H](NCC5CCC5)C4)cn3)nn2)c1 [Compound 139, (R)-5-(1-((5-(3-((cyclobutylmethyl)amino)piperidin-1-yl)pyridin-2-yl)methyl)-1H-1,2,3-triazol-4-yl)-N,N-dimethylpyridin-3-amine]	≤ 50	≤ 500	≤ 500
CN(C)c1cncc(-c2cn(Cc3ccc(N4CCC[C@@H](NCC5CCC5)C4)cc3)nn2)c1 [Compound 140]	≤ 50	≤ 500	≤ 500
COc1cncc(-c2cn(Cc3ccc(N4CCC[C@@H](NCC5CCC5)C4)cc3)cn2)c1 [Compound 144, (R)-N-(cyclobutylmethyl)-1-(4-((4-(5-methoxypyridin-3-yl)-1H-imidazol-1-yl)methyl)phenyl)piperidin-3-amine]	≤ 50	500 to 5000	500 to 5000
CN(C)c1cncc(-c2cn(C3(c4ccc(N5CCC[C@@H](NCC6CCC6)C5)cc4)COC3)nn2)c1 [Compound 148, (R)-5-(1-(3-(4-(3-((cyclobutylmethyl)amino)piperidin-1-yl)phenyl)oxetan-3-yl)-1H-1,2,3-triazol-4-yl)-N,N-dimethylpyridin-3-amine]	≤ 50	≤ 500	≤ 500
CN(C)c1cncc(-c2cn(C3(c4ccc(N5CCC[C@@H](NCC6CCC6)C5)cn4)COC3)nn2)c1 [Compound 149, (R)-5-(1-(3-(5-(3-((cyclobutylmethyl)amino)piperidin-1-yl)pyridin-2-yl)oxetan-3-yl)-1H-1,2,3-triazol-4-yl)-N,N-dimethylpyridin-3-amine]	≤ 50	≤ 500	≤ 500
COc1cncc(-c2cn(C3(c4ccc(N5CCC[C@@H](NCC6CCC6)C5)cn4)COC3)nn2)c1 [Compound 150, (R)-N-(cyclobutylmethyl)-1-(6-(3-(4-(5-methoxypyridin-3-yl)-1H-1,2,3-triazol-1-yl)oxetan-3-yl)pyridin-3-yl)piperidin-3-amine]	≤ 50	≤ 500	≤ 500
CC(n1cc(-c2cncc(N(C)C)n2)nn1)n1ccc(N2CCC[C@@H](NCC3CCC3)C2)cc1=O (stereo partly drawn) [Compound 164, 4-((R)-3-((cyclobutylmethyl)amino)piperidin-1-yl)-1-(1-(4-(6-(dimethylamino)pyrazin-2-yl)-1H-1,2,3-triazol-1-yl)ethyl)pyridin-2(1H)-one]	≤ 50	≤ 500	≤ 500
CC(c1nnc(-c2cncc(N(C)C)c2)s1)n1ccc(N2CCC[C@@H](NCC3CCC3)C2)cc1=O (stereo partly drawn) [Compound 171, 4-((R)-3-((cyclobutylmethyl)amino)piperidin-1-yl)-1-(1-(5-(5-(dimethylamino)pyridin-3-yl)-1,3,4-thiadiazol-2-yl)ethyl)pyridin-2(1H)-one]	≤ 50	≤ 500	≤ 500
CC(c1ccc(N2CCC[C@@H](NCC3CCC3)C2)nn1)n1cnc(-c2cncc(N(C)C)c2)c1 (stereo partly drawn) [Compound 173, 5-(1-(1-(6-((R)-3-((cyclobutylmethyl)amino)piperidin-1-yl)pyridazin-3-yl)ethyl)-1H-imidazol-4-yl)-N,N-dimethylpyridin-3-amine]	≤ 50	≤ 500	≤ 500
CN(C)c1cncc(-c2cn(Cn3ccc(N4CCC[C@@H](NCC5CC5)C4)cc3=O)nn2)c1 [Compound 174, (R)-4-(3-((cyclopropylmethyl)amino)piperidin-1-yl)-1-((4-(5-(dimethylamino)pyridin-3-yl)-1H-1,2,3-triazol-1-yl)methyl)pyridin-2(1H)-one]	≤ 50	≤ 500	≤ 500
CN(C)c1cncc(NC(=O)C2(c3ccc(N4CCC[C@@H](NCC5CC5)C4)cn3)COC2)c1 [Compound 175, (R)-3-(5-(3-((cyclopropylmethyl)amino)piperidin-1-yl)pyridin-2-yl)-N-(5-(dimethylamino)pyridin-3-yl)oxetane-3-carboxamide]	≤ 50	500 to 5000	500 to 5000
COc1cncc(-c2cn(C(C)c3ccc(N4CCC[C@@H](NCC5CCC5)C4)nn3)cn2)c1 (stereo partly drawn) [Compound 182, (3R)—N-(cyclobutylmethyl)-1-(6-(1-(4-(5-methoxypyridin-3-yl)-1H-imidazol-1-yl)ethyl)pyridazin-3-yl)piperidin-3-amine]	≤ 50	≤ 500	500 to 5000

Now from value to compound, other results behind:

IC50 [1] [nM]	SMILES	IC50 [2] [nM]	IC50 [3] [nM]
≤ 50	CN(C)c1cncc(-c2cn(Cc3ccc(N4CCC[C@@H](NCC5CC5)C4)nn3)nn2)c1 [Compound 183, (R)-5-(1-((6-(3-((cyclopropylmethyl)amino)piperidin-1-yl)pyridazin-3-yl)methyl)-1H-1,2,3-triazol-4-yl)-N,N-dimethylpyridin-3-amine]	≤ 500	500 to 5000
≤ 50	CN(C)c1cncc(-c2cn(C3(c4ccc(N5CCC[C@@H](NCC6CC6)C5)cn4)COC3)nn2)c1 [Compound 184, (R)-5-(1-(3-(5-(3-((cyclopropylmethyl)amino)piperidin-1-yl)pyridin-2-yl)oxetan-3-yl)-1H-1,2,3-triazol-4-yl)-N,N-dimethylpyridin-3-amine]	≤ 500	≤ 500
≤ 50	c1cc(C2(n3cc(-c4cncc(N5CCCC5)n4)nn3)COC2)ncc1N1CCC[C@@H](NCC2CC2)C1 [Compound 185, (R)-N-(cyclopropylmethyl)-1-(6-(3-(4-(6-(pyrrolidin-1-yl)pyrazin-2-yl)-1H-1,2,3-triazol-1-yl)oxetan-3-yl)pyridin-3-yl)piperidin-3-amine]	≤ 500	≤ 500
≤ 50	CC(c1ccc(N2CCC[C@@H](NCC3CCC3)C2)cc1)n1cc(-c2cncc(N(C)C)c2)nn1 (stereo partly drawn) [Compound 189, 5-(1-(1-(4-((R)3-((cyclobutylmethyl)amino)piperidin-1-yl)phenyl)ethyl)-1H-1,2,3-triazol-4-yl)-N,N-dimethylpyridin-3-amine]	≤ 500	≤ 500
≤ 50	CN(C)c1cncc(-c2cn(C3(c4ccc(N5CCC[C@@H](NCC6CC6)C5)cn4)COC3)nn2)n1 [Compound 192, (R)-6-(1-(3-(5-(3-((cyclopropylmethyl)amino)piperidin-1-yl)pyridin-2-yl)oxetan-3-yl)-1H-1,2,3-triazol-4-yl)-N,N-dimethylpyrazin-2-amine]	≤ 500	≤ 500
≤ 50	c1ncc(N2CCCC2)cc1-c1cn(C2(c3ccc(N4CCC[C@@H](NCC5CC5)C4)cn3)COC2)nn1 [Compound 194, (R)-N-(cyclopropylmethyl)-1-(6-(3-(4-(5-(pyrrolidin-1-yl)pyridin-3-yl)-1H-1,2,3-triazol-1-yl)oxetan-3-yl)pyridin-3-yl)piperidin-3-amine]	≤ 500	≤ 500
≤ 50	O=C(Nc1cncc(N2CCCC2)c1)C1(c2ccc(N3CCC[C@@H](NCC4CC4)C3)cn2)COC1 [Compound 195, (R)-3-(5-(3-((cyclopropylmethyl)amino)piperidin-1-yl)pyridin-2-yl)-N-(5-(pyrrolidin-1-yl)pyridin-3-yl)oxetane-3-carboxamide]	500 to 5000	500 to 5000
≤ 50	CC(c1cnn(-c2cncc(N(C)C)c2)c1)n1ccc(N2CCC[C@@H](NCC3CC3)C2)cc1=O (stereo partly drawn) [Compound 196, 4-((R)-3-((cyclopropylmethyl)amino)piperidin-1-yl)-1-(1-(1-(5-(dimethylamino)pyridin-3-yl)-1H-pyrazol-4-yl)ethyl)pyridin-2(1H)-one]	≤ 500	≤ 500
≤ 50	CC(n1cc(-c2cncc(N3CC(F)(F)C3)c2)nn1)n1ccc(N2CCC[C@@H](NCC3CC3)C2)cc1=O (stereo partly drawn) [Compound 197]	500 to 5000	500 to 5000
≤ 50	O=c1cc(N2CCC[C@@H](NCC3CC3)C2)ccn1Cn1cc(-c2cncc(N3CCCC3)n2)nn1 [Compound 201, (R)-4-(3-((cyclopropylmethyl)amino)piperidin-1-yl)-1-((4-(6-(pyrrolidin-1-yl)pyrazin-2-yl)-1H-1,2,3-triazol-1-yl)methyl)pyridin-2(1H)-one]	≤ 500	≤ 500
≤ 50	c1nnc(-c2cn(C3(c4ccc(N5CCC[C@@H](NCC6CC6)C5)cn4)COC3)nn2)cc1N1CCCC1 [Compound 202, (R)-N-(cyclopropylmethyl)-1-(6-(3-(4-(5-(pyrrolidin-1-yl)pyridazin-3-yl)-1H-1,2,3-triazol-1-yl)oxetan-3-yl)pyridin-3-yl)piperidin-3-amine]	≤ 500	≤ 500
≤ 50	CCN(C)c1cncc(-c2cn(C(C)n3ccc(N4CCC[C@@H](NCC5CC5)C4)cc3=O)nn2)c1 (stereo partly drawn) [Compound 203]	≤ 500	≤ 500
≤ 50	CC(n1cc(-c2cncc(NCCO)c2)nn1)n1ccc(N2CCC[C@@H](NCC3CC3)C2)cc1=O (stereo partly drawn) [Compound 205]	500 to 5000	> 5000
